In PMC7661526, “Antibiofilm effects of N,O-acetals derived from 2-amino-1,4-naphthoquinone are associated with downregulation of important global virulence regulators in methicillin-resistant Staphylococcus aureus” (Scientific Reports, 2020):
In brackets after ≈: the same amount, converted by molar mass. Read-outs that look alike come from different tables or passages of the source.

Experiments:
[1] = tested on: MRSA Pediatric-USA800 (USA800-0179); test: MIC, broth microdilution; format: cell-based, Staphylococcus aureus
Description: (§1) For biofilm production, tryptic soy broth (TSB; BD, Franklin Lakes, NJ, USA) was supplemented with 1% (w/v) glucose (TSB-Glu). Tryptic soy agar (TSA; BD) was used for bacterial growth. The Mueller-Hinton broth (MHB; BD) and Mueller-Hinton agar (MHA; BD) was used for susceptibility tests. All strains were maintained in 10% (v/v) glycerol stocks and stored at − 80 °C.
(§2) The derivatives were also analyzed quantitatively using microdilution assays in 96-well inert polystyrene microtiter plates (Nuclon; Nalge Nunc International, Rochester, NY, USA) to determine the minimal inhibitory concentration (MIC)[14]. Biological control, as well as growth conditions, were performed following CLSI recommendation[15],[16]. […] Controls were also performed using 2% (v/v) DMSO only.

[2] = tested on: MRSA USA400 (USA400-0051); test: MIC, broth microdilution; format: cell-based, Staphylococcus aureus
Description: as §1, §2

[3] = tested on: MRSA OSPC-USA1100 (07-040); test: MIC, broth microdilution; format: cell-based, Staphylococcus aureus
Description: as §1, §2

[4] = tested on: MRSA NY/Japan-USA100 (CR15-071); test: MIC, broth microdilution; format: cell-based, Staphylococcus aureus
Description: as §1, §2

[5] = tested on: MRSA USA300 (USA300-0114); test: MIC, broth microdilution; format: cell-based, Staphylococcus aureus
Description: as §1, §2

S. aureus ATCC 25923 [6] = test: Disk diffusion test; format: cell-based, Staphylococcus aureus
Description: (§3) Strain representatives of six globally spread clones/lineages of MRSA were used in this study to test the antimicrobial activity of the N,O-acetal derivatives against MRSA: NY/Japan-USA100/ST5-SCCmecII (strain CR15-071), USA300/ST8-SCCmecIV (strain USA300-0114), USA400/ST1-SCCmecIV (strain USA400-0051), Brazilian epidemic clone-BEC/ST239-SCCmecIII (strain BMB9393), pediatric clone-USA800/ST5-SCCmecIV (strain USA800-0179), and OSPC-USA1100/ST30-SCCmecIV (strain 07-040). The S. aureus ATCC 25923 was used as a control for the experiment of drug susceptibility. […] For biofilm production, tryptic soy broth (TSB; BD, Franklin Lakes, NJ, USA) was supplemented with 1% (w/v) glucose (TSB-Glu). Tryptic soy agar (TSA; BD) was used for bacterial growth. The Mueller-Hinton broth (MHB; BD) and Mueller-Hinton agar (MHA; BD) was used for susceptibility tests. All strains were maintained in 10% (v/v) glycerol stocks and stored at − 80 °C.
as §2, with “The antibacterial activity of 6a and its derivatives 7a, 7b, and 7c was tested as previously described using paper disks impregnated with each compound[13]. The” for “The”

[7] = tested on: MRSA strain BMB9393 biofilm; test: Biofilm development on polystyrene, crystal violet; format: cell-based, Staphylococcus aureus; details: 1/4MIC (6a 32 µg/mL, 7a 64 µg/mL, vancomycin 0.5 µg/mL); strain BMB9393
Description: Biofilms were formed on polystyrene surfaces using the BEC representative, strain BMB9393. […] The same volume of the bacterial culture in TSB-Glu (37 °C/18 h; at 250 rpm) diluted 1/100 in the same broth was added to the wells. After incubation (37 °C/24 h), supernatants were gently removed, rinsed with distilled water, and treated with crystal violet solution as described. […] Eight independent tests with three replicates each were performed. Controls were inoculated with the same bacterial inoculum but using only TSB-Glu with 2% (v/v) DMSO, final concentration.

MRSA BEC (BMB9393) = test: microbe, parasite or virus in culture; format: cell-based, Staphylococcus aureus
Description: as §1, §2

Cytotoxicity assay (MTT) = details: African green monkey, Vero cell monolayers
Description: (§4) Plates were incubated for 1 h, the supernatant again removed, and 200 µL dimethyl sulfoxide (DMSO) were added to each well to dissolve the formazan crystals for 10 min. Absorbance was measured at 570 nm using an ELISA reader (Thermo Plate, TP-READER, Thermo Fisher Scientific). […] The selectivity index (SI) was calculated as follows: SI (µg/mL) = CC50/MIC[17]. Three independent experiments were performed in triplicate. Controls were performed using 2% (v/v) DMSO only.

[8] = tested on: MRSA (ST1-SCCmecIV) (USA400); test: Disk diffusion test; format: cell-based, Staphylococcus aureus
[9] = tested on: MRSA ST8-SCCmecIV (USA300); test: Disk diffusion test; format: cell-based, Staphylococcus aureus
S. aureus ATCC 25923 [10] = test: MIC, broth microdilution; format: cell-based, Staphylococcus aureus
Description: as §3
as §2, with “The antibacterial activity of 6a and its derivatives 7a, 7b, and 7c was tested as previously described using paper disks impregnated with each compound[13]. The” for “The”

[11] = tested on: MRSA ST5-SCCmecII (USA100); test: Disk diffusion test; format: cell-based, Staphylococcus aureus
Hemocompatibility assay = details: human, pH 7.4
Description: (§5) Erythrocytes were collected from three human volunteers in a citrate tube and washed three times (3×) with PBS (pH 7.4). All derivatives were incubated with the PBS-erythrocyte suspension for 3 h at 37 °C. The hemolysis with the release of hemoglobin was quantified by the spectrophotometric reading of the supernatant at 545 nm. Hemolysis less than 10% represented hemocompatibility and non-toxicity against erythrocyte membranes. For the positive control, the human erythrocytes were lysed with 1% (v/v) Triton X-100. The negative control was performed with 1% (v/v) DMSO only (final concentration). […] All methods were carried out in accordance with relevant guidelines and regulations. In addition, informed consent was obtained from all volunteers. Three independent experiments were performed in triplicate.

[12] = tested on: MRSA ST239-SCCmecIII (BMB9393); test: Disk diffusion test; format: cell-based, Staphylococcus aureus
[13] = tested on: MRSA ST5-SCCmecIV (USA800); test: Disk diffusion test; format: cell-based, Staphylococcus aureus
[14] = tested on: MRSA ST30-SCCmecIV (USA1100); test: Disk diffusion test; format: cell-based, Staphylococcus aureus
Vero cell line = test: Cytotoxicity assay (MTT); details: Vero cells, 24 h, MTT
Description: as §4

human erythrocytes = test: Hemocompatibility assay; details: highest concentration evaluated (300 µg/mL), 3 h at 37 °C
Description: as §5

[15] = tested on: MRSA strain CR15-071 (USA100) cells persistent to vancomycin; test: Vancomycin-persistent cells, high bacterial load on TSA plates; format: cell-based, Staphylococcus aureus; details: vancomycin alone, 4MIC (8 µg/mL) plates, high inoculum
Description: For this test, we choose the MRSA strain CR15-071 representative of the ST5-SCCmecII lineage (NY/Japan-USA100 clone), since this MRSA has replaced the ST239-SCCmecIII (the Brazilian clone) in this country, and is now the most frequent MRSA lineage in Brazilian hospitals. […]. The plates were incubated at 37 °C/24 h before being examined. […]. Bacterial growth was determined by removing persistent cells from the plates and determining UFC/ml. Controls were also performed using 2% (v/v) DMSO only. Three independent experiments were performed in triplicate.

[16] = Table 2, used for SI, strain not given, values of 6a-7c equal those for BEC (BMB9393)

NC1=CC(=O)c2ccccc2C1=O [6a, 2-amino-1,4-naphthoquinone]
MIC ([1]; Staphylococcus aureus): 128 µg/mL (≈ 739 µM) | MIC ([2]; Staphylococcus aureus): 128 µg/mL (≈ 739 µM) | MIC ([3]; Staphylococcus aureus, MRSA): 256 µg/mL (≈ 1480 µM) | MIC ([4]; Staphylococcus aureus): 256 µg/mL (≈ 1480 µM) | MIC ([5]; Staphylococcus aureus): 256 µg/mL (≈ 1480 µM) | Inhibition zone (S. aureus ATCC 25923 [6]): 9±1.4 mm | Effect on biofilm development [7]: much less effective at reducing biofilm development compared with 7b or 7c | MIC (MRSA BEC (BMB9393); Staphylococcus aureus, MRSA): 128 µg/mL (≈ 739 µM) | MIC (MRSA BEC (BMB9393); [16]): 128 µg/mL (≈ 739 µM) | CC50 at 24 h (Cytotoxicity assay (MTT)): 97.3 ± 3.12 µg/mL (≈ 562 µM) | Inhibition zone [8]: 8±1.2 mm | Inhibition zone [9]: 9±1.0 mm | MIC (S. aureus ATCC 25923 [10]; Staphylococcus aureus, ATCC25923, control strain S. aureus ATCC 25923, read-out: MIC): 32 µg/mL (≈ 185 µM) | Inhibition zone [11]: 9±1.0 mm | hemolysis at 3 h, 300 µg/mL (Hemocompatibility assay; human erythrocyte suspension): 3 ± 0.9% | Inhibition zone [12]: 8±2.0 mm | Inhibition zone [13]: 8±1.0 mm | Inhibition zone [14]: 10±0.5 mm

COCNC1=CC(=O)c2ccccc2C1=O [7a, 2-(methoxymethyl)-amino-1,4-naphthoquinone]
MIC ([1]; broth microdilution, Pediatric-USA800 (USA800-0179)): 256 µg/mL (≈ 1180 µM) | MIC ([2]; broth microdilution, USA400 (USA400-0051)): 128 µg/mL (≈ 589 µM) | MIC ([3]; broth microdilution, OSPC-USA1100 (07-040)): 256 µg/mL (≈ 1180 µM) | MIC ([4]; broth microdilution, NY/Japan-USA100 (CR15-071)): 256 µg/mL (≈ 1180 µM) | MIC ([5]; broth microdilution, USA300 (USA300-0114)): 128 µg/mL (≈ 589 µM) | Inhibition zone (S. aureus ATCC 25923 [6]): 9.7±2.0 mm | Effect on biofilm development [7]: much less effective at reducing biofilm development compared with 7b or 7c | MIC (MRSA BEC (BMB9393); [16]): 256 µg/mL (≈ 1180 µM) | MIC (MRSA BEC (BMB9393); broth microdilution, BEC (BMB9393)): 256 µg/mL (≈ 1180 µM) | CC50 (Vero cell line): 155.28 ± 1.03 µg/mL (≈ 715 µM) | Inhibition zone [8]: 13±2.0 mm | Inhibition zone [9]: 14±1.0 mm | MIC (S. aureus ATCC 25923 [10]; control strain S. aureus ATCC 25923): 128 µg/mL (≈ 589 µM) | Inhibition zone [11]: 12±1.0 mm | Hemolysis, maximum values (human erythrocytes): 3.10 ± 0.1% | Inhibition zone [12]: 10±1.5 mm | Inhibition zone [13]: 12±1.0 mm | Inhibition zone [14]: 13±1.0 mm

CN[C@H](CC(C)C)C(=O)N[C@H]1C(=O)N[C@@H](CC(N)=O)C(=O)N[C@H]2C(=O)N[C@H]3C(=O)N[C@H](C(=O)N[C@H](C(=O)O)c4cc(O)cc(O)c4-c4cc3ccc4O)[C@H](O)c3ccc(c(Cl)c3)Oc3cc2cc(c3O[C@@H]2O[C@H](CO)[C@@H](O)[C@H](O)[C@H]2O[C@H]2C[C@](C)(N)[C@H](O)[C@H](C)O2)Oc2ccc(cc2Cl)[C@H]1O [Vancomycin, vancomycin, reference compound]
Inhibition zone (S. aureus ATCC 25923 [6]): 13±1.0 mm | Effect on biofilm development [7]: not able to reduce biofilm development | Inhibition zone [8]: 16±2.0 mm | Inhibition zone [9]: 17±1.0 mm | Refractory/persistent cells recovered [15]: 4.5 × 10^8 CFU/mL | Inhibition zone [11]: 16±1.5 mm | hemolysis at 3 h (Hemocompatibility assay): 3.6 ± 0.8% | Inhibition zone [12]: 14±1.0 mm | Inhibition zone [13]: 17±1.5 mm | Inhibition zone [14]: 16±1.5 mm
